Laboratory results reported in patent US20260138961A1, “MODULATORS OF MITOCHONDRIAL DNA REPLICATION” (Pretzel Therapeutics, Inc., priority 2022, published 2026).

molecular target: T1, wild type human POLγ (POLγA:WT) (Homo sapiens, UniProt P54098); experiment: DNA polymerization assay, wild type POLγ; type: biochemical; details: 0.1 μM dNTP, read-out: WT AC50 (μM) at 0.1 μM
T1 sequence (P54098 1-1239): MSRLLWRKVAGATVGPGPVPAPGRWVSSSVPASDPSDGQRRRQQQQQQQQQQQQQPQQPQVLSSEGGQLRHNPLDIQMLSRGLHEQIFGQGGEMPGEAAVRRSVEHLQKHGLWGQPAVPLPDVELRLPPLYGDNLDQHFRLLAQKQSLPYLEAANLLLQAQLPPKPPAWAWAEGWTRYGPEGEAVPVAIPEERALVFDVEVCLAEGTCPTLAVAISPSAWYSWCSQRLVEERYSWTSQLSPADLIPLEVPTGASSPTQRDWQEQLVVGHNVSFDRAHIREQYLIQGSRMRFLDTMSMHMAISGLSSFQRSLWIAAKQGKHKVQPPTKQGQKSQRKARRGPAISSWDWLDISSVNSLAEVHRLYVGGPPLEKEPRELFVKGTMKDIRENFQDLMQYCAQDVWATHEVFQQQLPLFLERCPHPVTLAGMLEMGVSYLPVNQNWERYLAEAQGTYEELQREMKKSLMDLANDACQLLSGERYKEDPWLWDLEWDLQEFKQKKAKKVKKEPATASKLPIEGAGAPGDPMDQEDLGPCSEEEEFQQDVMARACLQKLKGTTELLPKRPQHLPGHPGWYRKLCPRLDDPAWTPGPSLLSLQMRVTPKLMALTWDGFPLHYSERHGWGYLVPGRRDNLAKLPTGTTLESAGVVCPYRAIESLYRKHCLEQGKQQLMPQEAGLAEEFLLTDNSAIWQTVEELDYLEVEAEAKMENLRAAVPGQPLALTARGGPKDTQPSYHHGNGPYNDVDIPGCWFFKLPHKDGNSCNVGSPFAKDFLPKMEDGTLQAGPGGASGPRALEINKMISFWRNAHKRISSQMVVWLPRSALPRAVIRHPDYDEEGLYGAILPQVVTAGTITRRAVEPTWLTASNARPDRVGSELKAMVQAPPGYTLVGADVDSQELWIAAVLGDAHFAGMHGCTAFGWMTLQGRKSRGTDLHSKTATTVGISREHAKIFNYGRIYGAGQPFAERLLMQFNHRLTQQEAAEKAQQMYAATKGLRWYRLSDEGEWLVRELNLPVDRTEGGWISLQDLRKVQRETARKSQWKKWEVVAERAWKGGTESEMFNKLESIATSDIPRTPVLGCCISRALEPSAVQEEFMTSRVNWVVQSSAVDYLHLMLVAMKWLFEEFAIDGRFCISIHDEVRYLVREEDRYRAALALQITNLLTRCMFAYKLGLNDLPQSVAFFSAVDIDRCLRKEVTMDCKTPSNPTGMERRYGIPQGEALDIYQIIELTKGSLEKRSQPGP
T1 sequence (Q9UHN1 1-485 partner): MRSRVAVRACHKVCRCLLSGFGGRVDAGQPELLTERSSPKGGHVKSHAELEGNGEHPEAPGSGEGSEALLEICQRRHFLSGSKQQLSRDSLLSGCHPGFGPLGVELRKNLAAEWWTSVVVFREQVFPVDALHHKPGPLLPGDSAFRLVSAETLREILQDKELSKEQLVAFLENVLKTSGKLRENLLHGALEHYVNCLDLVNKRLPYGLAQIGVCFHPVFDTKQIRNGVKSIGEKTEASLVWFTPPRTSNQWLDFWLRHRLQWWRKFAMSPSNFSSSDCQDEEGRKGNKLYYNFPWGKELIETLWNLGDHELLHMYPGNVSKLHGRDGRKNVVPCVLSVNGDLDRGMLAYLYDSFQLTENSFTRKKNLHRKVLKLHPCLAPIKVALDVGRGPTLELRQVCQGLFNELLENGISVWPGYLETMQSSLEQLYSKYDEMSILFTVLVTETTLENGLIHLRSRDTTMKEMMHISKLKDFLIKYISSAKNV
Experimental: DNA Polymerization Assay to Monitor Effects on Human Wildtype POLγ and Four Disease-Causing Mutant Variants of Human POLγ.
The ability of small molecules to stimulate the polymerase activity of POLγ was analyzed in a quantitative fluorescence SYBR Green I assay with fluorescence intensity (FI) readout.
In the presence of dNTPs, wild type human POLγ and mutant derivatives thereof were incubated with single-stranded, circular M13mp18 ssDNA hybridized to a short DNA oligonucleotide that functions as a primer for initiation of DNA synthesis. POLγ and mutant derivatives thereof will extend the primer and use the M13mp18 molecule as a template to synthesize long stretches of double-stranded DNA. SYBR Green I, which is a double-stranded DNA-binding dye, was used to quantify formation of double-stranded DNA in the reaction. When bound to double-stranded DNA, SYBR Green I fluorescence increases by up to 100-fold.
The assay was performed in the 384-well plate format. Upon addition of compounds, changes in double-stranded DNA synthesis activity can be monitored by following effects on fluorescent intensity.
The reactions also contained the accessory POLγB subunit, and the human mitochondrial single-stranded DNA binding protein (mtSSB).
The DNA template mixture used in the assay contained 0.5 nM primed M13 mp18 ssDNA, 400 nM mtSSB, 0.1 mM Tris-HCl (pH 8.0), 0.1 mM dNTP, 10 mM MgCl2, 0.1 mg/mL BSA, 1 mM TCEP solution, and 0.02% Triton X-100. The DNA template mixture for the wild type protein contained either 100 μM dNTP, 1 μM dNTP, or 0.1 μM dNTP, designated in Table 2 as 100 μM, 1 μM, and 0.1 μM, respectfully.
Microplates with compounds (0.1 μL in each well) to be tested in the assay were prepared from 10 mM compound stocks in 100% DMSO, and equal amounts of DMSO without any compound were added to positive and negative control wells.
The protein mixture was dispensed (5 μL into each well) into compound plates and incubated at 37° C. for 15 minutes. After incubation, 5 μL of the DNA template mixture was dispensed into each well. The plates were then incubated at 37° C. for 2 hours.
During incubation, a combined stop buffer and detection reagent solution was prepared. The buffer contained 25 mM EDTA (pH 8.0), 0.02% Triton X-100, and SYBR Green I [Invitrogen] diluted 10,000× (for fluorescent readout). EDTA will stop the enzymatic reaction by chelating magnesium ions.

Structure (SMILES) | AC50 [µM]
Cc1ccc(C)c(S(=O)(=O)Nc2cccc(C(=O)N3CCOCC3)c2)c1 [Example 29, 2,5-dimethyl-N-(3-(morpholine-4-carbonyl)phenyl)benzenesulfonamide] | 2
CC(=O)N1CCN(C(=O)c2cccc(NS(=O)(=O)c3cc(C)ccc3C)c2)CC1 [Example 30, N-(3-(4-acetylpiperazine-1-carbonyl)phenyl)-2,5-dimethylbenzenesulfonamide] | 2
Cc1ccc(C)c(S(=O)(=O)Nc2cccc(C(=O)N3CCCCCC3)c2)c1 [Example 32, N-(3-(azepane-1-carbonyl)phenyl)-2,5-dimethylbenzenesulfonamide] | 12
Cc1ccc(C)c(S(=O)(=O)Nc2cccc(C(=O)N3CCSCC3C(N)=O)c2)c1 (stereo not drawn) [Example 41, 4-(3-((2,5-dimethylphenyl)sulfonamido)benzoyl) thiomorpholine-3-carboxamide] | > 100
Cc1cc(S(=O)(=O)Nc2ccc(F)c(C(=O)N3CCC[C@H]3C)c2)c(C)cc1Cl [Example 49, (R)-4-chloro-N-(4-fluoro-3-(2-methylpyrrolidine-1-carbonyl)phenyl)-2,5-dimethylbenzenesulfonamide] | 2
Cc1cc(S(=O)(=O)Nc2cc(C(=O)N3CCC[C@H]3C)ccc2F)c(C)cc1Cl [Example 50, (R)-4-chloro-N-(2-fluoro-5-(2-methylpyrrolidine-1-carbonyl)phenyl)-2,5-dimethylbenzenesulfonamide] | 1
Cc1cc(S(=O)(=O)Nc2cccc(C(=O)N[C@H](C)CO)c2)c(C)cc1Cl [Example 51, (R)-3-((4-chloro-2,5-dimethylphenyl)sulfonamido)-N-(1-hydroxypropan-2-yl)benzamide] | 6
Cc1cc(S(=O)(=O)Nc2cccc(C(=O)N3CCN(C)C[C@H]3C)c2)c(C)cc1Cl [Example 54, (R)-4-chloro-N-(3-(2,4-dimethylpiperazine-1-carbonyl)phenyl)-2,5-dimethylbenzenesulfonamide] | 1
COCCN(C)C(=O)c1cccc(NS(=O)(=O)c2cc(C)c(Cl)cc2C)c1 [Example 58, 3-((4-chloro-2,5-dimethylphenyl)sulfonamido)-N-(2-methoxyethyl)-N-methylbenzamide] | 3

same assay, conditions: 1 μM dNTP, read-out: WT AC50 (μM) at 1 μM

Structure (SMILES) | AC50 [µM]
COc1ccccc1-c1nc(NS(=O)(=O)c2cc(C)c(Cl)cc2C)cs1 [Example 155, 4-chloro-N-(2-(2-methoxyphenyl)thiazol-4-yl)-2,5-dimethylbenzenesulfonamide] | 0.4

same assay, conditions: 100 μM dNTP, read-out: WT AC50 (μM) at 100 μM

Structure (SMILES) | AC50 [µM]
Cc1cc(S(=O)(=O)Nc2cccc(C(=O)N(C)C(C)CO)c2)c(C)cc1Cl (single isomer, unassigned) [Example 15, 3-((4-chloro-2,5-dimethylphenyl)sulfonamido)-N-(1-hydroxypropan-2-yl)-N-methylbenzamide] | > 10
Cc1csc(-c2cccc(NS(=O)(=O)c3cc(C)c(Cl)cc3C)c2)n1 [Example 20, 4-chloro-2,5-dimethyl-N-(3-(4-methylthiazol-2-yl)phenyl)benzenesulfonamide] | 0.3
Cc1cnc(-c2cccc(NS(=O)(=O)c3cc(C)c(Cl)cc3C)c2)s1 [Example 21, 4-chloro-2,5-dimethyl-N-(3-(5-methylthiazol-2-yl)phenyl)benzenesulfonamide] | 1
Cc1ccc(C)c(S(=O)(=O)Nc2cccc(-c3nccs3)c2)c1 [Example 60] | 0.6
Cc1cc(S(=O)(=O)Nc2cccc(-c3cc(C4CC4)[nH]n3)c2)c(C)cc1Cl [Example 64, 4-chloro-N-(3-(5-cyclopropyl-1H-pyrazol-3-yl)phenyl)-2,5-dimethylbenzenesulfonamide] | 0.7
CC[C@@H]1CCCN1C(=O)c1cccc(NS(=O)(=O)c2cc(C)c(Cl)cc2C)c1 [Example 65, (R)-4-chloro-N-(3-(2-ethylpyrrolidine-1-carbonyl)phenyl)-2,5-dimethylbenzenesulfonamide] | 8
Cc1cc(-c2cccc(NS(=O)(=O)c3cc(C)c(Cl)cc3C)c2)n[nH]1 [Example 66, 4-chloro-2,5-dimethyl-N-(3-(5-methyl-1H-pyrazol-3-yl)phenyl)benzenesulfonamide] | 0.5
Cc1cc(S(=O)(=O)Nc2cccc(C(=O)N3CCC[C@H]3C(C)C)c2)c(C)cc1Cl [Example 67, (S)-4-chloro-N-(3-(2-isopropylpyrrolidine-1-carbonyl)phenyl)-2,5-dimethylbenzenesulfonamide] | > 10
Cc1cc(S(=O)(=O)Nc2cccc(-c3cc[nH]n3)c2)c(C)cc1Cl [Example 68, N-(3-(1H-pyrazol-3-yl)phenyl)-4-chloro-2,5-dimethylbenzenesulfonamide] | 0.2
Cc1cc(S(=O)(=O)Nc2ccc3ccn(C(C)C)c3c2)c(C)cc1Cl [Example 69, 4-chloro-N-(1-isopropyl-1H-indol-6-yl)-2,5-dimethylbenzenesulfonamide] | 1
Cc1nc2ccc(NS(=O)(=O)c3cc(C)c(Cl)cc3C)cc2o1 [Example 70, 4-chloro-2,5-dimethyl-N-(2-methylbenzo[d]oxazol-6-yl)benzenesulfonamide] | 11
Cc1cc(S(=O)(=O)Nc2cccc(C(=O)N3CCCC34CC4)c2)c(C)cc1Cl [Example 162, N-(3-(4-azaspiro[2.4]heptane-4-carbonyl)phenyl)-4-chloro-2,5-dimethylbenzenesulfonamide] | 0.4
COc1cccc(-c2nc(NS(=O)(=O)c3cc(C)c(Cl)cc3C)cs2)c1 [Example 165, 4-chloro-N-(2-(3-methoxyphenyl)thiazol-4-yl)-2,5-dimethylbenzenesulfonamide] | 0.7
Cc1cc(S(=O)(=O)Nc2csc(C(=O)N3CCCC3)n2)c(C)cc1Cl [Example 166, 4-chloro-2,5-dimethyl-N-(2-(pyrrolidine-1-carbonyl)thiazol-4-yl)benzenesulfonamide] | 2
